Assay results published in US12269816B2, “Benzothiophene compound, preparation method therefor and use thereof” (SICHUAN KELUN-BIOTECH BIOPHARMACEUTICAL CO., LTD., priority 2019, dated 2025).

Test system: MC38 mouse colon cancer allograft tumor model
Assay: In vivo efficacy in the MC38 mouse colon cancer allograft tumor model
Details: 10 μg i.t.; for Tumor Volume, Day 0, Dosing side / Tumor Volume, Day 0, Non-dosing side: baseline at start of dosing; for Tumor Volume, Day 0, Dosing side / Tumor Volume, Day 0, Non-dosing side / Tumor Volume, Day 18, Dosing side / Tumor Volume, Day 18, Non-dosing side: mean ± SEM, n = 8; for Tumor Volume, Day 0, Dosing side / Tumor Volume, Day 0, Non-dosing side / Tumor Volume, Day 18, Dosing side / TGIvolume, Day 18, Dosing side: BIW×2; for Tumor Volume, Day 18, Non-dosing side / TGIvolume, Day 18, Non-dosing side: BIW×2 on the other side; for TGIvolume, Day 18, Dosing side / TGIvolume, Day 18, Non-dosing side: tumor volume inhibitory rate
Experimental: In this experimental example, the changes in tumor volume and tumor weight of an MC38 mouse colon cancer transplanted tumor model were measured and recorded after intratumoral injection (i.t.) of compound 6 or compound 8, so as to test the efficacy of each test compound.
Experimental cell strain: Mouse colon cancer MC38 cells (Nanjing Cobioer) were cultured in a 37° C., 5% CO2 incubator (medium: RPMI-1640 (Hyclone) containing 10% fetal bovine serum (Gibco)). Trypsin-EDTA (Hyclone) was used for routine digestion and passage. When the cells were in the exponential phase with a saturation of […], the cells were collected and counted.
Experimental animals: C57BL/6J mice, 6-8 weeks old, female, weighing 18-20 grams. All mice were purchased from Beijing Vital River Laboratory Animal Technology Co., Ltd., and kept in a special pathogen-free (SPF) animal room.
The MC38 cells were resuspended in phosphate buffered saline (PBS) at a density of 5×10^6 cells/mL. 0.1 mL of PBS (containing 5×10^5 MC38 cells) was inoculated subcutaneously at the position of scapula at the right and left back of each mouse. When the average volume of the tumors at the left and right sides reached about 100 mm^3, the mice were randomly grouped according to the volumes of the tumors at the left and right sides.
When the average volume of the subcutaneously transplanted tumors reached about 100 mm^3, the mice were randomly grouped according to the volume of the tumors at the left and right sides, with 8 in each group. Administration was performed on the tumors at the right side via intratumoral injection at an administration frequency of BIW×2 for 2 weeks in total, while no administration was performed on the tumors at the left side. After administration, the volumes of tumors at the left and right sides were measured twice a week, and the death of the animals was observed every day.
The anti-tumor efficacy of the test compound was evaluated by the tumor volume inhibitory rate TGIvolume (%). The tumor volume was measured with a vernier caliper. The tumor volume is calculated according to the formula: V=0.5×a×b^2, wherein “a” and “b” represent the long diameter and short diameter of the tumor, respectively. The tumor volume inhibitory rate TGIvolume (%)=[(1−(the average tumor volume at the end of dosing to a dosing group−the average tumor volume at the start of dosing to the dosing group)/(the average tumor volume at the end of dosing to a vehicle control group−the average tumor volume at the start of dosing to the vehicle control group)]×100%. When the tumor volume at the end of dosing was smaller than the tumor volume at the start of dosing (i.e., tumor regression), TGIvolume (%)=[1−(the average tumor volume at the end of dosing to a dosing group−average the tumor volume at the start of dosing to the dosing group)/the average tumor volume at the start of dosing to the dosing group]×100%.
A statistical analysis was performed based on the tumor volume at the end of the experiment using the Graphpad Prism software. A comparison between the two groups was analyzed by Student's t-test. When P<0.05, it was considered as having a significant difference.

SMILES	Tumor Volume, Day 0, Dosing side [mm^3]	Tumor Volume, Day 0, Non-dosing side [mm^3]	Tumor Volume, Day 18, Dosing side [mm^3]	Tumor Volume, Day 18, Non-dosing side [mm^3]	TGIvolume, Day 18, Dosing side [%]	TGIvolume, Day 18, Non-dosing side [%]
COc1cc2sc(C(=O)CCC(=O)O)cc2cc1OCCCOc1cc2cc(C(=O)N(C)CCC(=O)O)sc2cc1OC [Compound 8, 4-(5-(3-((2-((2-carboxyethyl)(methyl)carbamoyl)-6-methoxybenzo[b]thiophen-5-yl)oxy)propoxy)-6-methoxybenzo[b]thiophen-2-yl)-4-oxobutanoic Acid]	113.24 ± 12.33	96.60 ± 11.50	0.00 ± 0.00	666.08 ± 100.92	200.00	58.09
COc1cc2sc(C(=O)CCC(=O)O)cc2cc1OCCCOc1cc2sc(C(=O)N(C)CCC(=O)O)cc2cc1OC [Compound 6, 4-(5-(3-((2-((2-carboxyethyl)(methyl)carbamoyl)-5-methoxybenzo[b]thiophen-6-yl)oxy)propoxy)-6-methoxybenzo[b]thiophen-2-yl)-4-oxobutanoic acid]	112.09 ± 11.95	96.07 ± 10.17	105.10 ± 74.74	760.69 ± 174.22	106.24	51.09
